Data reported in article PMC9320607, “Synthesis, Biological Evaluation and Docking Studies of Ring-Opened Analogues of Ipomoeassin F” (Molecules, 2022).
“Also recorded” adds a separate entry of the source. Where two headings read alike, the source gives them in different places.

Key:
NCI 60-cell line = NCI 60-cell line screening; format: cell-based, human; conditions: for GI50: Homo sapiens, read-out: average GI50
From the text: (§1) To investigate the impact of ring-opening, we first submitted the open-chain analogue 1 [9] to the National Cancer Institute (NCI) 60-cell line screening (Supplementary Material S1) and determined the cytotoxicity of nine newly synthesized open-chain analogues 4–12 (Figure 2, Supplementary Materials S2 and S3) against MDA-MB-231 cells (Table S1). […] Furthermore, the majority of the nine new open-chain analogues were modestly less cytotoxic towards MDA-MB-231 cells when compared to their direct ring-closed counterparts (analogues 13–21 matching with 4–12; Figures S1 and S2 and Table S1).

MDA-MB-231 cells = experiment: Resazurin-based cytotoxicity assay in MDA-MB-231 cells; format: cell-based, human; conditions: for IC50: Homo sapiens
From the text: as §1
The human breast cancer cell line (MDA-MB-231) was maintained in a DMEM high glucose culture medium supplemented with 10% (v/v) fetal bovine serum (FBS) and 2 mM L-glutamine. Parental (Sec61α-WT) HCT-116 (human colorectal cancer cells, ATCC, CCL-247) and mutant (Sec61α-G80W) HCT-116 cells were maintained in McCoy’s 5A (modified) medium ((ThermoFisher, Waltham, MA, USA, 16600-082)) supplemented with 10% (v/v) FBS (Gibco, 10500-064) and 100 units/mL penicillin and […] streptomycin (Gibco, cat: 15140-122). All cell lines were maintained in a 5% CO2 humidified incubator at 37 °C. Cytotoxicity assays were performed in triplicate sets as previously described and viable cells were counted using an automated cell counter (Bio-Rad TC20) immediately before each experiment. Compound stock solutions in DMSO (10 mM) were diluted with supplemented culture media (MDA-MB-231 cells: high glucose DMEM; HCT116 Sec61α-WT and Sec61α-G80W cells: McCoy’s (modified) 5A) to make a series of gradient fresh working solutions at equal DMSO percentage immediately prior to each test. First, […] of cells at a cell density of […] (MDA-MB-231 cells) or 2.5 × 10^4 cells/mL (Sec61α-WT or Sec61α-G80W HCT-116 cells) were seeded in black 96-well microtiter plates (Falcon, product 353219; 2500 cells/well) and incubated at 37° C for 24 h. Subsequently, the cells were treated with either […] of the freshly made gradient working solution in a total volume of […]/well (MDA-MB-231 cells) or 25 mL of freshly made gradient in a total volume of […]/well (Sec61α-WT or Sec61α-G80W HCT-116 cells) at 37 °C for 72 h. For MDA-MB-231 cells, the media were discarded and […] fresh medium containing 10% (v/v) alamarBlue HS cell viability reagent (resazurin stock solution) (ThermoFisher, Waltham, MA, USA, A50100) was added to each well. For Sec61α-WT or Sec61α-G80W HCT-116 cells, the media was not discarded and alamarBlue HS cell viability reagent (resazurin stock solution) (ThermoFisher, Waltham, MA, USA, A50100) was added to 10% (v/v). After that, all cells were incubated at 37 °C for a further 1–3 h and the emission of each well at 620 nm was detected using a Synergy H1 Hybrid multi-mode plate reader (BioTek, Agilent Technologies, Palo Alto, CA, USA) at excitation 580 nm. […] IC50 value estimates were determined using nonlinear regression to fit data to a curve of variable slope (four parameters) using the least-squares fitting method. For HCT-116 cell IC50 curves, the top and bottom plateaus were defined as 100% and 23.70% (the mean of all data at 25 µM across all compounds), respectively.

[1] = target: T1, Sec61-mediated protein translocation (membrane integration of Ii) (Canis lupus familiaris, UniProt P38377); experiment: In vitro membrane insertion assay of Ii with ER microsomes; format: biochemical, canine; conditions: for reduction in Ii membrane integration / inhibition of in vitro membrane integration of Ii: 1 µM compound; for inhibition of in vitro membrane integration of Ii: versus DMSO control
T1 construct: cell-free translation system supplemented with ER microsomes derived from canine pancreas; from tissue; host or cells: canine pancreas ER microsomes (nuclease-treated); the Ii substrate was translated in vitro from T7-transcribed RNA
T1 sequence (P60058 whole entry): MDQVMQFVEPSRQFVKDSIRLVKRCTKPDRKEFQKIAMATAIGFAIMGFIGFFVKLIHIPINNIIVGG
T1 sequence (P38377 2-476): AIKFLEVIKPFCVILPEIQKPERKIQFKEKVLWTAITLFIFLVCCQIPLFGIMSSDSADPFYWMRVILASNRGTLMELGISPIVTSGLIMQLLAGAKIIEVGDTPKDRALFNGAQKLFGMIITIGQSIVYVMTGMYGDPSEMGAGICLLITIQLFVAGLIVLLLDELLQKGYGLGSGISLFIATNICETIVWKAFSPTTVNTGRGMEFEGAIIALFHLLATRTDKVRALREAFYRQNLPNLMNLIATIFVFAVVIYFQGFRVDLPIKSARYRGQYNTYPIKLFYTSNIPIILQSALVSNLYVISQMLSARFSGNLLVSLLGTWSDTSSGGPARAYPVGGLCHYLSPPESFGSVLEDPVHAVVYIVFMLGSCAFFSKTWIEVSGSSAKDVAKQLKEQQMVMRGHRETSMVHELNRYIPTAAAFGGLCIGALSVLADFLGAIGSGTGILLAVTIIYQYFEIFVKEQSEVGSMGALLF
T1 sequence (P60467 2-96, further chain): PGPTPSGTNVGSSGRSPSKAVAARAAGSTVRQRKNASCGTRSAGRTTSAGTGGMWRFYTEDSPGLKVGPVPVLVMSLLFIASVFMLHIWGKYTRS
From the text: Having previously established that the principal molecular basis for the cytotoxicity of Ipom-F is its strong, yet reversible, binding to Sec61α and the resultant wide-ranging blockade of Sec61-mediated protein translocation at the ER [13], we sought evidence that this mechanism also underlies the cytotoxic effects of 1 and other open-chain analogues. […] For comparative purposes, we analyzed the effects of 2 [13] and two closed-chain compounds: Ipom-F and the diester-modified analogue 22 [11] in parallel (Figure 3A).
Following the resolution of radiolabeled proteins by SDS-PAGE (Figure 3B), we used the efficiency with which the N-terminal domain of the type II integral membrane protein Ii (short form of HLA class II histocompatibility antigen gamma chain, isoform 1) was N-glycosylated inside the ER lumen as a robust reporter for the authentic membrane integration of this model Sec61-dependent protein client (Figure 3B, right upper panel, 0Gly versus 2 Gly forms).
Linear DNA of the short form of human HLA class II histocompatibility antigen gamma chain (Ii; P04232, […], residues 17–232) or human glycophorin C (GypC; P04921) were generated by PCR and transcribed into RNA using T7 RNA polymerase (Promega). Membrane insertion assays (20 µL, 1 h at 30 °C, containing 6.5% (v/v) nuclease-treated ER microsomes (from stock with OD280 = 44/mL)), endoglycosidase Hf (New England Biolabs) treatment, sample resolution by SDS-PAGE (16% polyacrylamide gels) and gel drying were performed as previously described. Following exposure to a phosphorimaging plate for 24–72 h, radiolabeled products were visualized using a Typhoon FLA-7000 (GE Healthcare, Tokyo, Japan) and the ratio of the signal intensity for the N-glycosylated (XGly) and non-glycosylated (0Gly) forms obtained using AIDA v.5.0 (Raytest Isotopenmeβgeräte). This value was then expressed relative to the matched DMSO control (set to 100%) in order to estimate the mean relative insertion (± SEM) from insertion experiments performed in triplicate (n = 3, biologically independent experiments). IC50 value estimates were determined in Prism 8 (GraphPad, San Diego, CA, USA) using nonlinear regression to fit data to a curve of variable slope (four parameters) using the least-squares fitting method, with the top and bottom plateaus of the curve defined as 100% and 7.67% (the mean of all data at 500 µM across all compounds), respectively.

HCT116 Sec61α-WT cells = experiment: Resazurin-based cell viability assay in HCT116 Sec61α-WT cells; parameters: species or system human; conditions: for cell death: 50 nM, 72 h; for IC50: Homo sapiens
Protocol: Parental (Sec61α-WT) […] All cell lines were maintained in a 5% CO2 humidified incubator at 37 °C. Cytotoxicity assays were performed in triplicate sets as previously described and viable cells were counted using an automated cell counter (Bio-Rad TC20) immediately before each experiment. Compound stock solutions in DMSO (10 mM) were diluted with supplemented culture media (MDA-MB-231 cells: high glucose DMEM; HCT116 Sec61α-WT and Sec61α-G80W cells: McCoy’s (modified) 5A) to make a series of gradient fresh working solutions at equal DMSO percentage immediately prior to each test. […] For MDA-MB-231 cells, the media were discarded and […] fresh medium containing 10% (v/v) alamarBlue HS cell viability reagent (resazurin stock solution) (ThermoFisher, Waltham, MA, USA, A50100) was added to each well. For Sec61α-WT or Sec61α-G80W HCT-116 cells, the media was not discarded and alamarBlue HS cell viability reagent (resazurin stock solution) (ThermoFisher, Waltham, MA, USA, A50100) was added to 10% (v/v). After that, all cells were incubated at 37 °C for a further 1–3 h and the emission of each well at 620 nm was detected using a Synergy H1 Hybrid multi-mode plate reader (BioTek, Agilent Technologies, Palo Alto, CA, USA) at excitation 580 nm. […] IC50 value estimates were determined using nonlinear regression to fit data to a curve of variable slope (four parameters) using the least-squares fitting method.

[2] = MDA-MB-231, 72 h, MDA-MB-231 cells, 72 h, read-out: IC50 (cytotoxicity)
[3] = MDA-MB-231, MDA-MB-231 cells, at least three independent experiments, read-out: IC50 ± SD, ring-open
[4] = Table 1, Ii membrane integration, read-out: In Vitro Translocation Inhibition (IC50)
[5] = HCT-116, Table 1, HCT116 Sec61α-WT cells, read-out: Cytotoxicity HCT-116 Cells (IC50)

SMILES	inhibition of in vitro membrane integration of Ii [1]	cell death (HCT116 Sec61α-WT cells; HCT116 Sec61α-WT cells)	IC50 (MDA-MB-231 cells; [2]) [nM]	IC50 (MDA-MB-231 cells; [3]) [nM]	IC50 [1, 4] [nM]	IC50 (HCT116 Sec61α-WT cells; [5]) [nM]	further results
C/C=C(\C)C(=O)O[C@@H]1[C@@H](O)[C@@H]2O[C@H]3[C@H](O[C@@H](CCCCC)CCCCCCC(=O)CCC(=O)OC[C@@H](O2)[C@H]1OC(=O)/C=C/c1ccccc1)O[C@H](C)[C@H](OC(C)=O)[C@@H]3O [Ipom-F, ipomoeassin F]	efficiently, albeit variably, inhibited	48–64%					GI50 (NCI 60-cell line; 60 cell): ~30 nM; IC50 (MDA-MB-231 cells; MDA-MB-231, 72 h, read-out: IC50 (cytotoxicity)): ~7 nM; IC50 (MDA-MB-231 cells; MDA-MB-231, read-out: IC50 ± SD, ring-closed): 6.5 ± 0.4 nM; IC50 [1]: 155 nM; reduction in Ii membrane integration [1]: 73–86%; IC50 (HCT116 Sec61α-WT cells; HCT-116, read-out: Cytotoxicity HCT-116 Cells (IC50)): 18 nM
C=CCCCC(=O)CCC(=O)OC[C@H]1O[C@@H](O[C@H]2[C@H](O[C@H](CC=C)CCCCC)O[C@H](C)[C@H](OC(C)=O)[C@@H]2O)[C@H](O)[C@@H](OC(=O)/C(C)=C/C)[C@@H]1OC(=O)/C=C/c1ccccc1 [analogue 1]	efficiently, albeit variably, inhibited	48–64%	~60	59 ± 8.1	562	170	GI50 (NCI 60-cell line; NCI 60-cell line screening, average over cell lines): ~135 nM; loss in potency when compared to Ipom-F (NCI 60-cell line; NCI 60-cell line average GI50): 4–5 fold; loss in potency when compared to Ipom-F (MDA-MB-231 cells; MDA-MB-231 cells IC50): 9 fold
C/C=C(\C)C(=O)O[C@@H]1[C@@H](O)[C@H](O[C@H]2[C@H](O[C@H](CCC)CCCCC)O[C@H](C)[C@H](OC(C)=O)[C@@H]2O)O[C@H](COC(=O)CCC(=O)CCCCC)[C@H]1OC(=O)/C=C/c1ccccc1 [analogue 2]	efficiently, albeit variably, inhibited	48–64%			202	41	reduction in Ii membrane integration [1]: 73–86%
C#CCOc1ccc(C=CC(=O)OC2C(COC(=O)CCC(=O)CCCC=C)OC(OC3C(OC(CC=C)CCCCC)OC(C)C(OC(C)=O)C3O)C(O)C2OC(=O)C(C)=CC)cc1 (centres unmarked) [analogue 4]			~168	168 ± 19			loss in activity when compared to 1 (MDA-MB-231 cells; MDA-MB-231 cells IC50): 3–4 fold
C=CCCN(C)C(=O)CCC(=O)OCC1OC(OC2C(OC(CC=C)CCCCC)OC(C)C(OC(C)=O)C2O)C(O)C(OC(=O)C(C)=CC)C1OC(=O)C=Cc1ccccc1 (centres unmarked) [analogue 5]	efficiently, albeit variably, inhibited	48–64%	~43	43 ± 11	291	41	reduction in Ii membrane integration [1]: 73–86%
C=CCCCCCCC(=O)OCC1OC(OC2C(OC(CC=C)CCCCC)OC(C)C(OC(C)=O)C2O)C(O)C(OC(=O)C(C)=CC)C1OC(=O)C=Cc1ccccc1 (centres unmarked) [analogue 6]	did not; also recorded: negligible inhibition	~ 20%	~205	205 ± 11			loss in activity when compared to 1 (MDA-MB-231 cells; MDA-MB-231 cells IC50): 3–4 fold
C=CCCCC(=O)CCC(=O)OCC1OC(OC2C(OC(CC=C)CCCCC)OC(C)C(O)C2O)C(O)C(OC(=O)C(C)=CC)C1OC(=O)C=Cc1ccccc1 (centres unmarked) [analogue 7]				3880			
C=CCCCC(=O)CCC(=O)OCC1OC(OC2C(OC(CC=C)CCCCC)OC(C)C(OC(C)=O)C2O)C(O)C(OC(=O)C(C)=CC)C1OC(=O)c1ccccc1 (centres unmarked) [analogue 8]				4610			
C=CCCCC(=O)CCC(=O)OCC1OC(OC2C(OC(CC=C)CCCCC)OC(C)C(OC(C)=O)C2O)C(O)C(OC(=O)C(C)=CC)C1OC(=O)CCc1ccccc1 (centres unmarked) [analogue 9]				2170			
C=CCCCC(=O)CCC(=O)OCC1OC(OC2C(OC(CC=C)CCCCC)OC(C)C(OC(C)=O)C2O)C(O)C(OC(=O)C(C)=CC)C1OC(=O)C(C)=CC (centres unmarked) [analogue 10]				2740			
C=CCCCC(=O)CCC(=O)OCC1OC(OC2C(OC(CC=C)CCCCC)OC(C)C(OC(C)=O)C2O)C(O)C(O)C1OC(=O)C=Cc1ccccc1 (centres unmarked) [analogue 11]				6320			
C=CCCCC(=O)CCC(=O)OCC1OC(OC2C(OC(CC=C)CCCCC)OC(C)C(OC(C)=O)C2O)C(O)C(OC(=O)C(C)=CC)C1O (centres unmarked) [analogue 12]				5600			
C/C=C(\C)C(=O)O[C@@H]1[C@@H](O)[C@@H]2O[C@H]3[C@H](O[C@@H](CCCCC)CCCCCOC(=O)CCC(=O)OC[C@@H](O2)[C@H]1OC(=O)/C=C/c1ccccc1)O[C@H](C)[C@H](OC(C)=O)[C@@H]3O [analogue 22]	efficiently, albeit variably, inhibited	48–64%			334	70	
